Columns and labels:
Type in all cases: functional, cell-based
[1] = system: HepG2; assay: Antiproliferative activity against human HepG2 cells assessed as inhibition of cell growth incubated for 24 to 72 hrs by CCK8 assay
[2] = system: A549; assay: Antiproliferative activity against human A549 cells assessed as inhibition of cell growth incubated for 24 to 72 hrs by CCK8 assay
[3] = system: NCI-H460; assay: Antiproliferative activity against human NCI-H460 cells assessed as inhibition of cell growth incubated for 24 to 72 hrs by CCK8 assay

| SMILES | IC50 [1] [µM] | IC50 [2] [µM] | IC50 [3] [µM] |
| --- | --- | --- | --- |
| CCCCCCCCCCCC(=O)O[C@@]12C[C@@H](C)[C@]34C=C(C)[C@H](OC(=O)NC5CC5)[C@@]3(O)[C@H](O)C(CO)=C[C@H](C4=O)[C@@H]1C2(C)C | 12.7 | 13.7 | – |
| CCCCCCCCCCCC(=O)O[C@@]12C[C@@H](C)[C@]34C=C(C)[C@H](O)[C@@]3(O)[C@H](O)C(COC(=O)c3ccc([N+](=O)[O-])cc3)=C[C@H](C4=O)[C@@H]1C2(C)C | 15.5 | 12.8 | 2.6 |
| CCCCCCCCCCCC(=O)O[C@@]12C[C@@H](C)[C@]34C=C(C)[C@H](OCc5ccccc5)[C@@]3(O)[C@H](O)C(CO)=C[C@H](C4=O)[C@@H]1C2(C)C | 8.8 | 16.2 | 23.5 |
| CCCCCCCCCCCC(=O)O[C@@]12C[C@@H](C)[C@]34C=C(C)[C@H](OC(=O)c5ccc(-c6ccccc6)cc5)[C@@]3(O)[C@H](O)C(CO)=C[C@H](C4=O)[C@@H]1C2(C)C | > 50 | > 50 | – |
| CCCCCCCCCCCC(=O)O[C@@]12C[C@@H](C)[C@]34C=C(C)[C@H](OCC)[C@@]3(O)[C@H](O)C(CO)=C[C@H](C4=O)[C@@H]1C2(C)C | 13.6 | 27.2 | 45.8 |
| CCCCCCCCCCCC(=O)O[C@@]12C[C@@H](C)[C@]34C=C(C)[C@H](O)[C@@]3(O)[C@H](O)C(COC(=O)c3ccc(Br)cc3)=C[C@H](C4=O)[C@@H]1C2(C)C | – | > 50 | > 50 |
| CCCCCCCCCCCC(=O)O[C@@]12C[C@@H](C)[C@]34C=C(C)[C@H](OC(=O)NCCCC)[C@@]3(O)[C@H](O)C(CO)=C[C@H](C4=O)[C@@H]1C2(C)C | 10.3 | 25.6 | 9.7 |
| C/C=C(/C)C(=O)O[C@H]1C(C)=C[C@]23C(=O)[C@@H](C=C(CO)[C@@H](O)[C@]12O)[C@H]1[C@@H](C[C@H]3C)C1(C)C [INGENOL MEBUTATE] | > 50 | > 50 | > 50 |
| CCCCCCCCCCCC(=O)O[C@@]12C[C@@H](C)[C@]34C=C(C)[C@H](OC(=O)c5ccc([N+](=O)[O-])cc5)[C@@]3(O)[C@H](O)C(CO)=C[C@H](C4=O)[C@@H]1C2(C)C | 12 | 14.2 | – |
| CCCCCCCCCCCC(=O)O[C@@]12C[C@@H](C)[C@]34C=C(C)[C@H](OC(=O)NC5CCCC5)[C@@]3(O)[C@H](O)C(CO)=C[C@H](C4=O)[C@@H]1C2(C)C | 8.7 | 11.9 | 17.9 |
| CCCCCCCCCCCC(=O)O[C@@]12C[C@@H](C)[C@]34C=C(C)[C@H](OC(=O)C5CCCCC5)[C@@]3(O)[C@H](O)C(CO)=C[C@H](C4=O)[C@@H]1C2(C)C | 13.4 | 17.1 | – |
| CCCCCCCCCCCC(=O)O[C@@]12C[C@@H](C)[C@]34C=C(C)[C@H](OC(=O)NCc5ccc(F)cc5)[C@@]3(O)[C@H](O)C(CO)=C[C@H](C4=O)[C@@H]1C2(C)C | 10.9 | 9.4 | 11.8 |
| CCCCCCCCCCCC(=O)O[C@@]12C[C@@H](C)[C@]34C=C(C)[C@H](OC(=O)c5ccccc5)[C@@]3(O)[C@H](O)C(CO)=C[C@H](C4=O)[C@@H]1C2(C)C | 14.5 | 23.8 | – |
| CCCCCCCCCCCC(=O)O[C@@]12C[C@@H](C)[C@]34C=C(C)[C@H](OC(=O)NCCCCCC)[C@@]3(O)[C@H](O)C(CO)=C[C@H](C4=O)[C@@H]1C2(C)C | – | 31 | 29 |
| CCCCCCCCCCCC(=O)O[C@@]12C[C@@H](C)[C@]34C=C(C)[C@H](OC(=O)c5ccc(F)cc5)[C@@]3(O)[C@H](O)C(COC(=O)c3ccc(F)cc3)=C[C@H](C4=O)[C@@H]1C2(C)C | > 50 | 12.5 | 5.4 |
| CCCCCCCCCCCC(=O)O[C@@]12C[C@@H](C)[C@]34C=C(C)[C@H](OC(=O)NCCCCC)[C@@]3(O)[C@H](O)C(CO)=C[C@H](C4=O)[C@@H]1C2(C)C | 1.7 | 32.8 | 5.4 |
| CCCCCCCCCCCC(=O)O[C@@]12C[C@@H](C)[C@]34C=C(C)[C@H](OCCC)[C@@]3(O)[C@H](O)C(CO)=C[C@H](C4=O)[C@@H]1C2(C)C | 12.7 | 30 | – |
| CCCCCCCCCCCC(=O)O[C@@]12C[C@@H](C)[C@]34C=C(C)[C@H](OC(=O)NCCCCCCCC)[C@@]3(O)[C@H](O)C(CO)=C[C@H](C4=O)[C@@H]1C2(C)C | – | 19.1 | 14.3 |
| CCCCCCCCCCCC(=O)O[C@@]12C[C@@H](C)[C@]34C=C(C)[C@H](OC(=O)c5ccc(OC)cc5)[C@@]3(O)[C@H](O)C(CO)=C[C@H](C4=O)[C@@H]1C2(C)C | 14.3 | 23.6 | – |
| CCCCCCCCCCCC(=O)O[C@@]12C[C@@H](C)[C@]34C=C(C)[C@H](OC(=O)NC(C)C)[C@@]3(O)[C@H](O)C(CO)=C[C@H](C4=O)[C@@H]1C2(C)C | 13.5 | 18.1 | – |
| CCCCCCCCCCCC(=O)O[C@@]12C[C@@H](C)[C@]34C=C(C)[C@H](OC(=O)c5ccc(Br)cc5)[C@@]3(O)[C@H](O)C(CO)=C[C@H](C4=O)[C@@H]1C2(C)C | > 50 | 10 | 7.9 |
| CCCCCCCCCCCC(=O)O[C@@]12C[C@@H](C)[C@]34C=C(C)[C@H](OC(=O)c5ccc6ccccc6c5)[C@@]3(O)[C@H](O)C(CO)=C[C@H](C4=O)[C@@H]1C2(C)C | > 50 | > 50 | – |
| CCCCCCCCCCCC(=O)O[C@@]12C[C@@H](C)[C@]34C=C(C)[C@H](OC(=O)N5CCCC5)[C@@]3(O)[C@H](O)C(CO)=C[C@H](C4=O)[C@@H]1C2(C)C | 21.1 | 27.9 | – |
| CCCCCCCCCCCC(=O)O[C@@]12C[C@@H](C)[C@]34C=C(C)[C@H](OC(=O)NCc5ccc(C)cc5)[C@@]3(O)[C@H](O)C(CO)=C[C@H](C4=O)[C@@H]1C2(C)C | 27 | > 50 | – |
| CCCCCCCCCCCC(=O)O[C@@]12C[C@@H](C)[C@]34C=C(C)[C@H](O)[C@@]3(O)[C@H](O)C(COC(=O)c3ccc(F)cc3)=C[C@H](C4=O)[C@@H]1C2(C)C | 7.6 | 21.2 | 4.5 |
| CCCCCCCCCCCC(=O)O[C@@]12C[C@@H](C)[C@]34C=C(C)[C@H](OC(=O)c5ccc(Br)cc5)[C@@]3(O)[C@H](O)C(COC(=O)c3ccc(Br)cc3)=C[C@H](C4=O)[C@@H]1C2(C)C | – | > 50 | > 50 |
| CCCCCCCCCCCC(=O)O[C@@]12C[C@@H](C)[C@]34C=C(C)[C@H](OC)[C@@]3(O)[C@H](O)C(CO)=C[C@H](C4=O)[C@@H]1C2(C)C | 13.6 | 16.6 | – |
